We go through two substances from patent US8580268B2, “CpG oligonucleotide analogs containing hydrophobic T analogs with enhanced immunostimulatory activity” (Coley Pharmaceutical GmbH, priority 2006, dated 2013).

The subject of one series is PBMC. Nature of the series: B-cell proliferation in CFSE-labeled human PBMC. In kind it is cell-based. As to conditions: CFSE-labeled PBMC from three donors, 5 days, CD19 staining. Here is the method: Next the activity of modified P-class class ODN (SEQ ID NO:58, 60-62, FIG. 29a) (SEQ ID NO:64 and 67, FIG. 29b) was compared to that of an unmodified B-class ODN (SEQ ID NO:55), an unmodified C-class ODN (SEQ ID NO:54), a negative control ODN (SEQ ID NO:53), an unmodified P-class ODN (SEQ ID NO:56), LPS, R-848, SEB, and a poly[I]:[C] ODN. CFSE-labeled PBMC from three donors were incubated with the ODN for 5 days and then stained with a CD19 antibody. The percentage of B cells with reduced CFSE staining was determined.

For series [1], the system named is BALB/c mice. Nature of the series: In vivo murine IFN-alpha induction after SC injection (ELISA). Details: species or system mouse. As to conditions: bled at 3 hr post injection. On the procedure: (§1) Female BALB/c mice (6-8 weeks of age) were purchased from Charles River Canada (Quebec, Canada) and housed in micro-isolators in the Animal Care Facility at Coley Pharmaceutical Group Canada. All studies were conducted in accordance with the Animal Care Committee of Coley Canada under the guidance of the Canadian Council on Animal Care. All animals were naïve to CpG ODNs.
In order to determine the effect of the modified P-class ODN in vivo, BALB/c mice (5 per group) were injected SC with differing doses of ODN. Animals were bled at 3 hr post injection and plasma tested for IFN-alpha by ELISA. The activity of modified P-class ODN (SEQ ID NO:58, 60-62, 64, and 67) was compared to that of a B-class negative control (SEQ ID NO:55) and a negative control (SEQ ID NO:26).

Series [2] concerns BALB/c mouse splenocytes. The series is described as follows: Cytokine ELISA of mouse splenocyte culture supernatants. In kind it is cell-based. As to conditions: BALB/c splenocyte supernatants at 6 hour (TNF-alpha) or 24 hours (IL-6, IL-10, IL-12). From the text: Naïve BALB/c mouse splenocytes (from pools of 3-5 animals) were used for in vitro assays. Animals were anaesthetized with isoflurane and euthanized by cervical dislocation. Spleens were removed under aseptic conditions and placed in PBS+0.2% bovine serum albumin (Sigma Chemical Company). Spleens were then homogenized and splenocytes were re-suspended in RPMI 1640 (Life Technologies, Grand Island, N.Y.) tissue culture medium supplemented with 2% normal mouse serum (Cedarlane Laboratories, Ontario, Canada), penicillin-streptomycin solution (final concentration of 1000 U/ml and 1 mg/ml respectively; Sigma Chemical Company), and 5×10−5 M b-mercaptoethanol (Sigma Chemical Company).
In order to determine the efficacy of the modified ODN of the invention […], ODN with lipophilic T analogs were tested in isolated mouse splenocytes. BALB/c mouse splenocytes were isolated and incubated with modified B class (SEQ ID NO:13), unmodified B class (SEQ ID NO:37), and a non-CpG ODN (SEQ ID NO:26) (Table 5). Culture supernatants were collected at 6 hour (TNF-alpha) or 24 hours (IL-6, IL-10, IL-12) and cytokine concentration was measured by ELISA.
For orientation: ELISA stands for enzyme-linked immunosorbent assay.

Series [3] relates to BALB/c mouse splenocytes. The series is described as follows: B cell proliferation in CFSE-stained mouse splenocytes (FACS). In kind it is cell-based. Particulars: 0.001-10 μg/ml ODN, 72 hours, CD19 FACS. On the procedure:
Caboxy-florescein diacetate, succimidyl ester (CFSE) (Invitrogen, Eugene, Oreg., USA) stained BALB/c mouse splenocytes (4×10^5/well) were incubated with different concentrations of ODN in a humidified 5% CO2 incubator at 37° C. for […]. Cells were then stained with PE conjugated anti-CD19 antibody (BD Pharmingen, San Diego, Calif., USA) for CD19 and B-cell proliferation was determined by FACS followed by analysis by ModFit Software V3.0 (Verity Software House Inc., Topsham, Me., USA).
ODN were then tested their ability to induce B cell proliferation in splenocytes. CFSE-stained BALB/c mouse splenocytes (4×10^5/well) were incubated with 0.001, 0.01, 0.1, 0.3, 1, 3 or 10 μg/ml of the indicated ODN (FIG. 14). At 72 hours post-incubation, cells were stained for cell surface marker CD19 and B-cell proliferation was determined by FACS followed by analysis by ModFit Software. […] The increase was most pronounced even at lower ODN concentration.

The next series deals with T1, human TLR9 (Homo sapiens, UniProt Q9NR96).
T1 construct: expressed in transfected cells
T1 sequence (Q9NR96 26-1032): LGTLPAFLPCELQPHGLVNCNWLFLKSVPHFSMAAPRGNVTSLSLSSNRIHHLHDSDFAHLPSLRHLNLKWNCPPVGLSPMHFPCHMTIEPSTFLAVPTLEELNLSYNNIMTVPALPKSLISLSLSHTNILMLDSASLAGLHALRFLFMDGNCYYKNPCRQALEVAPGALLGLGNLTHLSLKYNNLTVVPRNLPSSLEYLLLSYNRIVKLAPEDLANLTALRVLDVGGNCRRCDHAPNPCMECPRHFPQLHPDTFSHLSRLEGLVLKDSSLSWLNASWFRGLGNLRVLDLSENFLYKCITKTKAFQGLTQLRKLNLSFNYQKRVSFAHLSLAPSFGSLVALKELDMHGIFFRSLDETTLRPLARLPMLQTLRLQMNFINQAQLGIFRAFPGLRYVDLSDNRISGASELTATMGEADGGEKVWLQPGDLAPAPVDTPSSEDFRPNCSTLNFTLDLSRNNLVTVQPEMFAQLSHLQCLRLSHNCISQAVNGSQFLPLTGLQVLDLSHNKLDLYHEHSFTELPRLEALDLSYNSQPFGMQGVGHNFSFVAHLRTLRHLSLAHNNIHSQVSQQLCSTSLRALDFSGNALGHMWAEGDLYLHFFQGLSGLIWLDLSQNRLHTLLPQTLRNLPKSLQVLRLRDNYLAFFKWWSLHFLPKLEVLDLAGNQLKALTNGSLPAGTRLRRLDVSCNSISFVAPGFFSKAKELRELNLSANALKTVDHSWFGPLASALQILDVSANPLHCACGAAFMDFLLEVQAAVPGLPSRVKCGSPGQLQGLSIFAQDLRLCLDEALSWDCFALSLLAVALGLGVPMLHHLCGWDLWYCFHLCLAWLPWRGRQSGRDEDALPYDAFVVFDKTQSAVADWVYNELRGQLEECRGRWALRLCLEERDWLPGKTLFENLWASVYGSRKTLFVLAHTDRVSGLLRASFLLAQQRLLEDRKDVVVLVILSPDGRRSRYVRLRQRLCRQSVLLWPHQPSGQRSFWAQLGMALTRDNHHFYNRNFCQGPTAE
Nature of the series: TLR9 luciferase assay (NF-κB reporter) in hTLR9-LUC-293 cells. In kind it is cell-based. Particulars: 16 h, stated in words relative to the comparator ODN. On the procedure:
HEK293 cells were transfected by electroporation with vectors expressing the respective human TLR and a 6xNF-κB-luciferase reporter plasmid. Stable transfectants (3×10^4 cells/well) were incubated indicated amounts of ODN for 16 h at 37° C. in a humidified incubator. Each data point was done in triplicate. Cells were lysed and assayed for luciferase gene activity (using the BriteLite kit from Perkin-Elmer, Zaventem, Belgium). Stimulation indices were calculated in reference to reporter gene activity of medium without addition of ODN.

The test system of series [4] is BALB/c mice. The series is described as follows: In vivo plasma cytokine production after SC injection (ELISA). On the set-up: species or system mouse. Here is the method: as §1
To measure the effect of modified ODN in vivo, BALB/c mice (5 per group) were injected subcutaneously (SC) with 10, 50 or 100 μg of SEQ ID NO:13 or 100 μg of SEQ ID NO:37 in a total volume of 100 μl SC. Control group received 100 μl of PBS alone. Animals were bled by cardiac puncture at 1 hour post injection (TNF-alpha) or 3 hours post injection (IP-10). Plasma samples were assayed ELISA for TNF-alpha (FIG. 15a) and IP-10 (FIG. 15b).

Entries after “also recorded” stand apart in the source; their conditions may differ. Strand notation (5' to 3'): a small letter for the sugar, then the base; units joined by * are phosphorothioate-linked, units joined directly phosphodiester-linked; [ ] holds rarer units or linkages, { } end groups; capitals alone tell only the bases. [5IU] = 5-iodo-2'-deoxyuridine (publication's JU); d = 2'-deoxy (DNA)

As to “T*C*G*T*C*G*T*T*T*T*G*T*C*G*T*T*T*T*G*T*C*G*T*T [SEQ ID NO:55, reference compound]”, the “percentage of B cells with reduced CFSE staining” value in the series with PBMC is “highest percentage of B cells after division”. Moreover, in the series on BALB/c mice [1], the “plasma IFN-alpha induction” value is listed as “did not induce much murine IFN-alpha”.
Regarding “T*G*JU*C-G*T*T*T*T*T*T*T*T*T*T*T*T*T*T*T (DNA dT*dG*d[5IU]*dCdG*dT*dT*dT*dT*dT*dT*dT*dT*dT*dT*dT*dT*dT*dT*dT) [SEQ ID NO:13]”, the “cytokine concentration (TNF-alpha, IL-6, IL-10, IL-12)” value in the series on BALB/c mouse splenocytes [2] is “dramatically increased levels of all cytokines tested”. Besides, the B-cell proliferation result with BALB/c mouse splenocytes [3] is listed as “marked increase in B-cell proliferation”. Besides, the “TLR9 stimulation (NF-κB luciferase activity, relative stimulation index)” value with human TLR9 is reported as “greater stimulation of TLR9 activity over control; also recorded: more active in the assay than the parent ODN”. Also, in the series on BALB/c mice [4] (1 hour post injection), the “plasma TNF-alpha production” value is on record as “higher”. The “plasma IP-10 production” value in the series on BALB/c mice [4] (3 hours post injection) is reported as “higher”.
